US6890762B1, “Method for measuring physiocochemical properties of tissues of cells, method for examining chemicals, and apparatus therefor” (Matsushita Technical Information Services Co., Ltd., priority 1996, dated 2005)

Columns and labels:
slice of a rat heart = test: spontaneous activity potential of cultivated rat heart slice on integrated multiple electrode; format: cell-based; settings: final concentration of 1 mM, added on the fifth day of the culturing
Description: This slice of a rat heart has been cultivated as explained below. […] The same culture medium as described in the first example was used. The structure of the integrated multiple electrode 2 and the surface processing was the same as described in the first example. In order to increase the adhesive strength between the tissue (the cells) and the microelectrodes 11 of the integrated multiple electrode 2, collagen gel (under 50 μm thick) has been applied to the surface of the integrated multiple electrode 2 before the culturing. Then the rat heart slice is placed and cultivated on the collagen gel where the microelectrodes 11 are. The rat heart slice is prepared, so that a sinoatrial node or an atrioventricular node is included. […] This culturing method is explained below. (a) A heart is taken from a two days old SD rat, and immersed in a Hanks' balanced salt solution cooled with ice water, with 0.25 vol. % D-glucose. The hanks' balanced salt solution is renewed several times to rinse out the blood completely. (b) Careful incision and preparation of a heart slice is performed, so that a sinoatrial node and an atrioventricular node are included in the heart slice. (c) The slice is adjusted with micro-scissors used in eye surgery to a size of about 1×1 mm. […]

[1] = test system: slice of the cerebral cortex of a rat; test: induced potential of cultivated rat cerebral cortex slice on integrated multiple electrode; format: cell-based; settings: for chronic effect on the induced potential: 3 days after addition on the third day of culturing
Description: In this example, a slice of the cerebral cortex of a rat was used as nervous tissue and cultivated with the culturing method described below. As a change in the physical and chemical environment, the stimulant drug methamphetamine has been added to the culturing fluid. Furthermore, the electrophysiological properties of the tissue or cells, that is the induced potential when a stimulus has been applied, were measured as the physical and chemical properties of the tissue or cells.
Preceding the culturing of the cells, the surface of the integrated multiple electrode 2 was covered with collagen gel not thicker than 50 μm, to promote the adhesive strength between the microelectrodes 11 of the integrated multiple electrode 2 and the cells. Then the cerebral cortex slice of the rat (not thicker than 500 μm) was placed and cultivated on top of the microelectrodes 11 and the collagen gel. FIGS. 10(a)-(e) show the measured induced potentials 30 min after methamphetamine has been added in different concentrations to the culture medium on the sixth day of culturing, and FIGS. 11(a)-(c) show the measured induced potentials 3 days after methamphetamine has been added in different concentrations to the culture medium on the third day of culturing, together with the induced potential before the addition of the methamphetamine. In other words, FIGS. 10(a)-(e) show the acute effect of the methamphetamine and FIGS. 11(a)-(c) show the chronic effect of the methamphetamine.
(4-2) Culturing Method for a Rat Cerebral Cortex Slice
(a) A brain is taken from a two days old SD rat, and immersed in a Hanks' balanced salt solution cooled in iced water, with 0.25 vol. % D-glucose.
(b) In the cooled Hanks' balanced salt solution with 0.25 vol.% D-glucose, the meninges attached to the brain is removed carefully without damaging the cerebral cortex with a sharp-tipped pincette.
(c) A section is made with micro-scissors used in eye surgery, about 500 μm from the corpus callosum on one side of the cerebral cortex from which the meninges has been removed along the corpus callosum from the occipital lobe towards the frontal lobe.
(d) Next, a slice is prepared with micro-scissors used in eye surgery by cutting vertically 200-300 μm into the cerebral cortex from the sectional plane described under (c).
(e) Furthermore, the slice is adjusted with micro-scissors used in eye surgery to a size of about 1×1 mm.
(f) The integrated multiple electrode, the preparation of which has been explained under “(3) Surface Processing of the Integrated Multiple Electrode 2”, is taken out of the CO2 incubator, the adjusted slice of the cerebral cortex is carefully taken up without damaging it with a pipette with at least 2 mm opening diameter, and moved into the well of the integrated multiple electrode 2.
(g) The cerebral cortex is placed on the microelectrodes 11 with a layered portion pointing upwards, carefully so as not to damage the cerebral cortex, using a Pasteur pipette, the tip of which has been smoothed by heating with a burner.
(h) After the slice of the cerebral cortex has been placed on the integrated multiple electrode 2, the amount of the culture medium is adjusted so that the bottom of the slice is immersed in the culture medium and the top of the slice is in the open air.
(i) After the adjustment of the culture medium, the integrated multiple electrode 2 is placed on a Petri dish, about 5 mL of 37° C. sterile water is poured onto the Petri dish to prevent dehydration of the culture medium, and the integrated multiple electrode 2 is again placed in the CO2 incubator.
(j) While observing the amount of the culture medium, the culture medium was renewed once every day. The amount of the culture medium is adjusted as described in (i).

Row | Structure (SMILES) | beat frequency of the spontaneous activity potential versus before the addition (slice of a rat heart) | chronic effect on the induced potential ([1]; 0.01 mM methamphetamine) | acute effect on the induced potential ([1]; 0.1 mM methamphetamine, 30 min after addition on the sixth day of culturing) | chronic effect on the induced potential ([1]; 0.1 mM methamphetamine) | acute effect on the induced potential (deflection) ([1]; 0.5 mM methamphetamine, 30 min after addition on the sixth day of culturing) | acute effect on the induced potential ([1]; 1 mM methamphetamine, 30 min after addition on the sixth day of culturing) | induced potential after removal of the substance (chronic) ([1]; after the methamphetamine has been removed, chronic exposure) | induced potential after removal of the substance (acute) ([1]; methamphetamine removed from the fluid, culture medium returned to usual composition)
1 | CNCC(O)c1ccc(O)c(O)c1 (centres unmarked) [adrenaline] | noticeably higher | – | – | – | – | – | – | –
2 | CN[C@@H](C)Cc1ccccc1 [methamphetamine] | – | disappeared | no noticeable acute effect | disappeared almost completely | somewhat smaller | disappeared almost completely | did not recover | recovered to almost the same condition as before
